The results in this text go back to patent US20240043435A1, “TYK-2 INHIBITOR” (BEIGENE, LTD., priority 2020, published 2024).

Assay [1] concerns pSTAT5/GM-CSF. As to the kind of experiment: pSTAT5/GM-CSF cellular assay (JAK2 selectivity). The assay is classed as cell-based.
For assay [2], the target named is T1, TYK2-JH2 (aa 575-869, in-house) protein (Homo sapiens, UniProt P29597).
T1 construct: TYK2-JH2 (aa 575-869, in-house) protein; made in house
In words: TYK2-JH2 biochemical assay (HTRF probe displacement). The settings on record: Biochemical assay; read-out: TYK2-JH2 IC50. It is filed as binding. Put shortly:
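Recombinant TYK2-JH2 (0.2 nM) was pre-incubated 0.5 h at room temperature with compounds (10 doses, 5-fold dilution; 500× DMSO stocks from 500 uM) in 20 mM HEPES pH 7.5, 10 mM MgCl2, 0.005% BSA, 2 mM DTT, 0.015% Brij-35. Probe displacement was read by HTRF (ex337, em620/665 nm); IC50 from four-parameter logistic fit.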
A general note: TR-FRET usually uses a lanthanide donor and a delayed reading to cut background.

Assay [3] relates to JAK2, TYK2/p-STAT4 (Tyr693) activated by IL-12 in NK-92 cell line. In words: IL-12-JAK2, TYK2/p-STAT4 (Tyr693) inhibition IC50 cellular assay. It is filed as cell-based. Particulars: for Selectivity fold (TYK2/JAK2): Cellular assay, pSTAT5/GM-CSF IC50 vs pSTAT4/IL-12 IC50; for IC50: NK92, Cellular assay, read-out: pSTAT4/IL-12 IC50. An excerpt:
Assay C: IL-12-JAK2, TYK2/p-STAT4 (Tyr693) Inhibition IC50 Cellular Assay
To evaluate the inhibition effect of compounds disclosed herein on JAK2, TYK2/p-STAT4 (Tyr693) activated by IL-12 in NK-92 cell line, NK-92 cells were collected and washed 3 times by DPBS and resuspended in MEM-α (GIBCO, Cat #12561056) with 10% FBS (Gibco, Cat #10099, Lot #1891605), without IL-2 (R&D systems, Cat #202-IL), starved overnight. Cells were collected and resuspended in 1640 medium (phenol red free, Gibco, Cat #11835-030) with 0.1% BSA, and 12.5 μl/5×10^4/well cell suspension were seeded to the 96-well plate (Corning, Cat #3799). Then cells were treated with compounds diluted in 0.2% DMSO 1640 medium, at 37° C., 1 h. Dilution is done according to the following protocol: (1) make 500× compounds solution in DMSO from 5 mM by 4-fold dilution, total 8 doses were included; (3) make 2× compounds solution in assay medium by transferring 0.5 μl serial 500× stock solution into 125 μl assay medium; (4) 15 μl of 2× serial solution is added to cells and incubate at 37° C. for 1 h, the final compound conc. is 10000, 2500, 625, 156.25, 39, 9.8, 2.4 and 0.61 nM, respectively. After 1 h, cells were treated with 2.5 μl medium containing IL-12 at 37° C. (R&D systems, Cat #219-IL-005, final conc. 40 ng/ml), 30 min. Following cells were lysed with 7.5 μl lysis buffer at RT, shaking on shaker for 1 h. 10 μL of cell lysate were transferred to a PE 384-well Proxiplate detection plate, and 5 μL of pre-mixed Alphascreen beads were added to each well. Covered the plate with a plate sealer, span 1000 rpm for 1 min, mix, Incubated overnight at room temperature. Read on BMG PheraStar with Alphascreen protocol. IC 50 values were calculated by fitting dependent data to the four-parameter logistic model using dotmatics software. The assay was performed by using AlphaLISA SureFire Ultra p-STAT4 (Tyr693) Assay Kit—High Volume (PE, Cat #ALSU-PST4-A-HV).

Setting [4] is: pSTAT5/GM-CSF IC50 over pSTAT4/IL-12 IC50.

T1 sequence (P29597 575-869): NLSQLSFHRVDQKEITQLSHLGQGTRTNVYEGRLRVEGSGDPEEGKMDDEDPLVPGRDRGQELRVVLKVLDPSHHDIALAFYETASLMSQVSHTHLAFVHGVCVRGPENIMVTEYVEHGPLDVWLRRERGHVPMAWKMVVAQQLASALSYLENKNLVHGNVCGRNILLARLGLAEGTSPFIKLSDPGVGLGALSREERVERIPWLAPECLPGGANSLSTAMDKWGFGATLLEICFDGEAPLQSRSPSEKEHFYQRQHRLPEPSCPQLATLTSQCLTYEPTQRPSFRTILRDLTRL

On to `COCCOc1ccc(-c2cnc(NC(C)=O)cc2Nc2cc(C)cc(S(C)(=O)=O)n2)nc1` [Example D4, N-(5-(2-methoxyethoxy)-4′-((4-methyl-6-(methylsulfonyl)pyridin-2-yl)amino)-[2,3′-bipyridin]-6′-yl)acetamide], for which the IC50 in assay [1] is more than 10000 nM; in assay [2], 0.044 nM; in assay [3], 0.262 nM. Besides, the “Selectivity fold (TYK2/JAK2)” value in assay [3] is recorded as more than 38167 fold.

For the molecule `CC(=O)Nc1cc(Nc2cc(OCCO)cc(S(C)(=O)=O)n2)c(-c2ccc(N3CCOCC3=O)cn2)cn1` [Example G3, N-(4′-((4-(2-hydroxyethoxy)-6-(methylsulfonyl)pyridin-2-yl)amino)-5-(3-oxomorpholino)-[2,3′-bipyridin]-6′-yl)acetamide], the IC50 in assay [1] is more than 10000 nM; in assay [2] it was 0.05 nM; in assay [3] it was 224 nM. In addition, the “Selectivity fold (TYK2/JAK2)” value in assay [1] (pSTAT5/GM-CSF vs pSTAT4/IL-12) is given as more than 44 fold.

`COCCOc1cc(Nc2cc(NC(C)=O)ncc2-c2ccn(C(C)C)n2)nc(S(C)(=O)=O)c1` [Example M24, N-(5-(1-isopropyl-1H-pyrazol-3-yl)-4-((4-(2-methoxyethoxy)-6-(methylsulfonyl)pyridin-2-yl)amino)pyridin-2-yl)acetamide]: the values for the IC50 in assay [1], in assay [2] and in assay [3] were 2180 nM, 0.032 nM and 0.487 nM, respectively. Moreover, the “Selectivity fold (TYK2/JAK2)” value in assay [1] (setting [4]) worked out at 4466 fold.

As to `COC1CN(c2cc(Nc3cc(NC(C)=O)ncc3-c3ccc4c(n3)OCC(C)(C)O4)nc(S(C)(=O)=O)c2)C1` [Example Q49, N-(5-(2,2-dimethyl-2,3-dihydro-[1,4]dioxino[2,3-b]pyridin-6-yl)-4-((4-(3-methoxyazetidin-1-yl)-6-(methylsulfonyl)pyridin-2-yl)amino)pyridin-2-yl)acetamide], the IC50 in assay [1] is 379 nM; in assay [2], 0.029 nM; in assay [3], 0.827 nM. Moreover, the “Selectivity fold (TYK2/JAK2)” value in assay [1] (setting [4]) was 458 fold.

Take `CC(=O)Nc1cc(Nc2cc(N3CCC(O)C3)cc(S(C)(=O)=O)c2)c(-c2ccc(C(C)(C)O)cn2)cn1` (stereo not shown) [Example H17, N-(5-(2-hydroxypropan-2-yl)-4′-((3-(3-hydroxypyrrolidin-1-yl)-5-(methylsulfonyl)phenyl)amino)-[2,3′-bipyridin]-6′-yl)acetamide]: the results for the IC50 in assay [1], in assay [2] and in assay [3] were more than 10000 nM, 0.034 nM and 67 nM, respectively. Besides, in assay [3], the “Selectivity fold (TYK2/JAK2)” value is more than 149 fold.

In the case of `COC(C)COc1cc(Nc2cc(NC(C)=O)ncc2-c2ccn(C)n2)nc(S(C)(=O)=O)c1` (stereo not shown) [Example J13, N-(4-((4-(2-methoxypropoxy)-6-(methylsulfonyl)pyridin-2-yl)amino)-5-(1-methyl-1H-pyrazol-3-yl)pyridin-2-yl)acetamide], the IC50 in assay [1] is more than 10000 nM; in assay [2], 0.054 nM; in assay [3], 1.18 nM. The “Selectivity fold (TYK2/JAK2)” value in assay [1] (setting [4]) was more than 8474 fold.

As to `CC(=O)Nc1cc(Nc2nc(S(C)(=O)=O)ccc2C)c(-c2ccc(C(C)(C)O)cn2)cn1` [Example H32, N-(5-(2-hydroxypropan-2-yl)-4′-((3-methyl-6-(methylsulfonyl)pyridin-2-yl)amino)-[2,3′-bipyridin]-6′-yl)acetamide], the IC50 was more than 10000 nM in assay [1], 0.023 nM in assay [2] and 0.447 nM in assay [3]. The “Selectivity fold (TYK2/JAK2)” value in assay [3] is more than 22371 fold.

In the case of `CCn1ccc(-c2cnc(NC(C)=O)cc2Nc2nc(S(C)(=O)=O)ccc2OC(C)C)n1` [Example M21, N-(5-(1-ethyl-1H-pyrazol-3-yl)-4-((3-isopropoxy-6-(methylsulfonyl)pyridin-2-yl)amino)pyridin-2-yl)acetamide], the IC50 in assay [1] is more than 10000 nM; in assay [2], 0.035 nM; in assay [3] it was 1.69 nM. In addition, in assay [1] (setting [4]), the “Selectivity fold (TYK2/JAK2)” value is more than 5917 fold.

For the molecule `CCOc1cc(Nc2cc(NC(C)=O)ncc2-c2ccc(C(C)(C)O)cn2)nc(S(C)(=O)=O)c1` [Example H33, N-(4′-((4-ethoxy-6-(methylsulfonyl)pyridin-2-yl)amino)-5-(2-hydroxypropan-2-yl)-[2,3′-bipyridin]-6′-yl)acetamide], the figures for the IC50 in assay [1], in assay [2] and in assay [3] were more than 10000 nM, 0.019 nM and 0.777 nM, respectively. Further, in assay [3], the “Selectivity fold (TYK2/JAK2)” value is recorded as more than 22371 fold.

As for `COCCOc1cc(Nc2cc(NC(C)=O)ncc2-c2ccn(C)n2)nc(S(C)(=O)=O)c1` [Example J12, N-(4-((4-(2-methoxyethoxy)-6-(methylsulfonyl)pyridin-2-yl)amino)-5-(1-methyl-1H-pyrazol-3-yl)pyridin-2-yl)acetamide], the IC50 in assay [1] is more than 10000 nM; in assay [2], 0.017 nM; in assay [3], 0.847 nM. The “Selectivity fold (TYK2/JAK2)” value in assay [1] (setting [4]) is given as more than 11806 fold.

In the case of `CC(=O)Nc1cc(Nc2cc(OC(C)C)cc(S(C)(=O)=O)n2)c(-c2ccc(C(C)(C)O)cn2)cn1` [Example H2, N-(5-(2-hydroxypropan-2-yl)-4′-((4-isopropoxy-6-(methylsulfonyl)pyridin-2-yl)amino)-[2,3′-bipyridin]-6′-yl)acetamide], the IC50 in assay [1] is more than 10000 nM; in assay [2] it was 0.036 nM; in assay [3], 0.939 nM. The “Selectivity fold (TYK2/JAK2)” value in assay [3] is reported as more than 10649 fold.

Regarding `COCc1ccc(-c2cnc(NC(C)=O)cc2Nc2cc(OCCO)cc(S(C)(=O)=O)n2)nc1` [Example E6, N-(4′-((4-(2-hydroxyethoxy)-6-(methylsulfonyl)pyridin-2-yl)amino)-5-(methoxymethyl)-[2,3′-bipyridin]-6′-yl)acetamide], the values for the IC50 in assay [1], in assay [2] and in assay [3] were more than 10000 nM, 0.029 nM and 2.72 nM, respectively. Further, the “Selectivity fold (TYK2/JAK2)” value in assay [3] is listed as more than 3676 fold.

Consider `CC(=O)Nc1cc(Nc2cc(OC(C)C)cc(S(C)(=O)=O)n2)c(-c2cc3c(cn2)NCCO3)cn1` [Example Q4, N-(5-(3,4-dihydro-2H-pyrido[4,3-b][1,4]oxazin-7-yl)-4-((4-isopropoxy-6-(methylsulfonyl)pyridin-yl)amino)pyridin-2-yl)acetamide], for which the IC50 in assay [1] is more than 10000 nM; in assay [2], 0.037 nM; in assay [3], 1.1 nM. For the same molecule, the “Selectivity fold (TYK2/JAK2)” value in assay [1] (setting [4]) was more than 9090 fold.

For `CC(=O)Nc1cc(Nc2cc(OC(F)(F)F)cc(S(C)(=O)=O)c2)c(-c2ccc(C(C)(C)O)cn2)cn1` [Example H18, N-(5-(2-hydroxypropan-2-yl)-4′-((3-(methylsulfonyl)-5-(trifluoromethoxy)phenyl)amino)-[2,3′-bipyridin]-6′-yl)acetamide], the IC50 in assay [1] was more than 10000 nM; in assay [2], 0.032 nM; in assay [3], 5.54 nM. For the same molecule, in assay [3], the “Selectivity fold (TYK2/JAK2)” value was more than 1805 fold.

Regarding `COC(C)c1cc(Nc2cc(NC(C)=O)ncc2-c2ccn(C)n2)nc(S(C)(=O)=O)c1` (stereo not shown) [Example J41, N-(4-((4-(1-methoxyethyl)-6-(methylsulfonyl)pyridin-2-yl)amino)-5-(1-methyl-1H-pyrazol-3-yl)pyridin-2-yl)acetamide], the IC50 in assay [1] is more than 10000 nM; in assay [2], 0.027 nM; in assay [3], 2.98 nM. Further, the “Selectivity fold (TYK2/JAK2)” value in assay [1] (setting [4]) was more than 3355 fold.

With `CC(=O)Nc1cc(Nc2ccc(F)c(S(C)(=O)=O)n2)c(-c2ccn(C)n2)cn1` [Example J54, N-(4-((5-fluoro-6-(methylsulfonyl)pyridin-2-yl)amino)-5-(1-methyl-1H-pyrazol-3-yl)pyridin-2-yl)acetamide], the IC50 in assay [1] is more than 10000 nM; in assay [2], 0.028 nM; in assay [3], 2.03 nM. For the same molecule, the “Selectivity fold (TYK2/JAK2)” value in assay [1] (setting [4]) is reported as more than 4926 fold.
